# From the NIST ThermoML archive (doi:10.1021/je700234e)
# Numbers after ± are expanded uncertainties.
# Experiments:
# [1] = Crystal; DTA
# [2] = Molar enthalpy of transition or fusion; details: Crystal; DSC
smiles,measurement,setting,value
O=S1(=O)c2ccccc2-c2ccccc21 [dibenzothiophene sulfone],Normal melting temperature,[1],236.1 ± 0.5 °C
same,Molar enthalpy of transition or fusion,[2],6.49 ± 0.196 kcal/mol
